In US10499676B2, “Intestinal barrier integrity” (N.V. Nutricia, priority 2004, dated 2019):

Columns and labels:
[1] = tested on: intestinal epithelial cell line T84 monolayers incubated with IL-4; experiment: Effect of LC-PUFA on IL-4 mediated barrier disruption: TER and 4 kDa FITC-dextran flux; assay type: cell-based, human; conditions: for protective effect on IL-4 mediated barrier destruction (Flux), time and dose dependent: FIGS. 2A and 2B, 10 μM and 100 μM, 4 kD dextran flux; for IL-4 Flux / IL-4 TER: fatty acid 100 μM, 48 hr pre-incubation then 48 hr co-incubation with IL-4 2 ng/ml
Method: (§1) Monolayers (MC) of intestinal epithelial cell lines T84 (American Type Culture Collection (ATTC), Manassas, USA) were cultured on transwell filters (Corning, Costar BV, The Netherlands) allowing both mucosal and serosal sampling and stimulation of human intestinal epithelial cells. Two weeks post confluency the monolayers were incubated in the luminal compartment with polyunsaturated fatty acids ARA (arachidonic acid; 5,8,11,14-eicosatetraenoic acid), DHA (cis-4,7,10,13,16,19 docosahexaenoic acid), EPA (eicosapentaenoic acid) or control palmitic (C 16:0) acid (Palm) (Sigma, St. Louis, USA). The latter procedure was chosen to mimic the in vivo administration route of the dietary compounds. Cells were incubated with ARA, DHA, EPA, or palmitic acid for 0, 24, 48 and 72 hr at different concentrations (10 μM and 100 μM). Experiments were performed to evaluate basal barrier integrity. The epithelial barrier function was determined by measuring the transepithelial resistance (TER, Ω·cm^2) was measured by epithelial volt-ohm meter (EVOM; World Precision Instruments, Germany) and permeability for 4 kD FITC dextran (paracellular permeability marker, Sigma, USA). Resistance (Epithelial permeability for 4 kDa FITC-dextran was determined as follows. Prior to dextran fluxes the medium was refreshed with culture medium without phenol red for one hour followed by addition of 5 μl (stock 100 mg/ml) 4 kDa FITC-dextran to the lumenal compartment. After 30 min incubation 100 μl sample was collected from the serosal compartment and the fluorescent signal measured at excitation wavelength 485 nm and emission 520 nm (FLUOstar Galaxy®, BMG Labtechnologies, USA). FITC-dextran fluxes were calculated as pmol FITC-dextran/cm^2/h. Statistical analyses were performed using the ANOVA (SPSS version 10).
Monolayers (MC) of intestinal epithelial cell lines T84 (ATCC, USA) were cultured on transwell filters (Corning, Costar BV, The Netherlands) allowing both mucosal and serosal sampling and stimulation of human intestinal epithelial cells. Two weeks post confluency the monolayers were incubated in the presence of IL-4 (2 ng/ml, serosal compartment, Sigma, USA) with or without polyunsaturated fatty acids ARA, DHA, GLA, EPA, or control palmitic acid (10 μM or 100 μM, mucosal compartment, Sigma, St. Louis, USA). Cells were pre-incubated with ARA, DHA, EPA, or palmitic acid for 48 hr prior to the IL-4 incubation. The co-incubation of PUFA's and palmetic acid with IL-4 was continued for another 48 hr; while culture medium and additives were changed every 24 hr. The epithelial barrier function was determined by measuring the transepithelial resistance (TER) and permeability as described in example 1. Statistical evaluation was performed as described in example 1.

[2] = tested on: intestinal epithelial cell line T84 monolayers; experiment: Effect of LC-PUFA on basal (spontaneous) barrier integrity: TER and 4 kDa FITC-dextran flux; assay type: cell-based, human; conditions: for basal barrier integrity (TER), time and dose dependent effect: FIGS. 1A and 1B, 10 μM and 100 μM; for Flux / Resistance (TER): fatty acid 100 μM, 72 hr incubation, spontaneous barrier integrity; for Flux: 4 kDa FITC-dextran
Method: as §1

[3] = tested on: MUC-2 expression in intestinal epithelial T84 cells; conditions: FIG. 4, 24 h, 0.025-4.0 mM, compared to propionate and butyrate

Compound | protective effect on IL-4 mediated barrier destruction (Flux), time and dose dependent [1] | IL-4 Flux [1] [pmol FITC-dextran/cm^2/h] | IL-4 TER [1] | basal barrier integrity (TER), time and dose dependent effect [2] | Flux [2] [pmol FITC-dextran/cm^2/h] | Resistance (TER) [2] | MUC-2 expression (mucus production) [3]
CCCCC/C=C\C/C=C\C/C=C\C/C=C\CCCC(=O)O [ARA, 5,8,11,14-eicosatetraenoic acid] | decreased 4 kD dextran flux | 218 | 636 Ω·cm^2 | increased resistance | 28 | 1816 Ω·cm^2 | 
CCC=CCC=CCC=CCC=CCC=CC/C=C\CCC(=O)O [DHA, cis-4,7,10,13,16,19 docosahexaenoic acid] | decreased 4 kD dextran flux | 271 | 547 Ω·cm^2 | increased resistance | 72 | 1574 Ω·cm^2 | 
CC/C=C\C/C=C\C/C=C\C/C=C\C/C=C\CCCC(=O)O [EPA, eicosapentaenoic acid] |  | 228 | 539 Ω·cm^2 |  | 65 | 1493 Ω·cm^2 | 
CCCCC/C=C\C/C=C\C/C=C\CCCCC(=O)O [GLA] | decreased 4 kD dextran flux |  |  | increased resistance |  |  | 
CCCCCCCCCCCCCCCC(=O)O [Palmitic acid, palmitic (C 16:0) acid, reference compound] |  | 777 | 321 Ω·cm^2 |  | 161 | 831 Ω·cm^2 | 
CC(=O)O [acetate] |  |  |  |  |  |  | more potent in stimulating MUC-2 expression
